How the values were obtained:
Format in all cases: biochemical
[1] = molecular target: T1, human pol κ (Homo sapiens, UniProt Q9UBT6); test: DNA polymerase assay, pol κ
T1 construct: A truncated form of pol κ (residues 1–560) with 6 x His-tags attached at the C-terminus; 6xHis (C); made in house; host or cells: E. coli
T1 sequence (Q9UBT6 1-560): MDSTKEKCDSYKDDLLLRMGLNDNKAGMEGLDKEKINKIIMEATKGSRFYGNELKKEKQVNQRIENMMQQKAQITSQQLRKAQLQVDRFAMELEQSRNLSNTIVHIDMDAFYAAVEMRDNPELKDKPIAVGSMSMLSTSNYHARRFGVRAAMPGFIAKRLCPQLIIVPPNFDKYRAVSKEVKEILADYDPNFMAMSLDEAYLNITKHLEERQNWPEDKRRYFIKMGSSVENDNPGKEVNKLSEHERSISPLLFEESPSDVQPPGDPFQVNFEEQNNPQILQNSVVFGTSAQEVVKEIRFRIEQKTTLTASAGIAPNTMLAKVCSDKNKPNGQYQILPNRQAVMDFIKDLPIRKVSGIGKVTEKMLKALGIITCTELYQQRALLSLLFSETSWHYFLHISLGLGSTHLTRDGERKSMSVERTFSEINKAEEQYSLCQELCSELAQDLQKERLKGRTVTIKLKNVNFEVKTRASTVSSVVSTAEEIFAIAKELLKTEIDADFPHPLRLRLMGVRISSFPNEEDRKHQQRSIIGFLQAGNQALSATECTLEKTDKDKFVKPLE
From the text: (§1) Pol α was purified from calf thymus by immuno-affinity column chromatography, as described by Tamai et al.. Recombinant rat pol β was purified from E. coli JMpβ5, as described by Date et al.. The human pol γ catalytic gene was cloned into pFastBac. Histidine-tagged enzyme was expressed using the BAC-TO-BAC HT Baculovirus Expression System according to the supplier’s manual (Life Technologies, MD, USA) and purified using ProBoundresin (Invitrogen Japan, Tokyo, Japan). Human pols δ and ɛ were purified by nuclear fractionation of human peripheral blood cancer cells (Molt-4) using the second subunit of pols δ and ɛ-conjugated affinity column chromatography, respectively. A truncated form of human pol η (residues 1–511) tagged with His6 at its C-terminal was expressed in E. coli cells and purified as described by Kusumoto et al.. A recombinant mouse pol ι tagged with His6 at its C-terminal was expressed and purified by Ni-NTA column chromatography as described elsewhere (Masutani et al., in preparation). […]
(§2) The compounds were dissolved in distilled dimethyl sulfoxide (DMSO) at various concentrations and sonicated for 30 sec. […] Activity without the inhibitor was considered 100%, and the remaining activity at each concentration of the inhibitor was determined relative to this value. […]

[2] = molecular target: T2, human pol ɛ (Homo sapiens, UniProt Q07864); test: DNA polymerase assay, pol ɛ; details: 100 μM
T2 construct: purified by nuclear fractionation of human peripheral blood cancer cells (Molt-4); endogenous in cells; host or cells: Molt-4
From the text: as §1, §2

[3] = molecular target: T3, human immunodeficiency virus type-1 (HIV-1) reverse transcriptase (Human immunodeficiency virus type 1 group M subtype B, UniProt P03366); test: HIV-1 reverse transcriptase assay; details: 100 μM
T3 construct: HIV-1 reverse transcriptase (recombinant); purchased Worthington Biochemical Corp. (Freehold, NJ, USA)
From the text: as §1, §2

[4] = molecular target: T4, T4 pol (Enterobacteria phage T4, UniProt P04415); test: DNA polymerase assay, T4 pol; details: 100 μM
T4 construct: purchased Takara Bio (Tokyo, Japan)
From the text: as §1, §2

[5] = molecular target: human telomerase (Homo sapiens, UniProt O14746); test: Telomerase assay; details: 100 μM
Protocol: The activities of calf primase of pol α, human telomerase, T7 RNA polymerase, mouse IMP dehydrogenase, human DNA topoisomerases I and II, T4 polynucleotide kinase and bovine DNase I were measured in standard assays according to the manufacturer’s specifications, as described by Tamiya-Koizumi et al., Oda et al., Nakayama et al., Mizushina et al., Ishimaru et al., Soltis et al. and Lu et al., respectively.

Chain of human telomerase (O14746 whole entry): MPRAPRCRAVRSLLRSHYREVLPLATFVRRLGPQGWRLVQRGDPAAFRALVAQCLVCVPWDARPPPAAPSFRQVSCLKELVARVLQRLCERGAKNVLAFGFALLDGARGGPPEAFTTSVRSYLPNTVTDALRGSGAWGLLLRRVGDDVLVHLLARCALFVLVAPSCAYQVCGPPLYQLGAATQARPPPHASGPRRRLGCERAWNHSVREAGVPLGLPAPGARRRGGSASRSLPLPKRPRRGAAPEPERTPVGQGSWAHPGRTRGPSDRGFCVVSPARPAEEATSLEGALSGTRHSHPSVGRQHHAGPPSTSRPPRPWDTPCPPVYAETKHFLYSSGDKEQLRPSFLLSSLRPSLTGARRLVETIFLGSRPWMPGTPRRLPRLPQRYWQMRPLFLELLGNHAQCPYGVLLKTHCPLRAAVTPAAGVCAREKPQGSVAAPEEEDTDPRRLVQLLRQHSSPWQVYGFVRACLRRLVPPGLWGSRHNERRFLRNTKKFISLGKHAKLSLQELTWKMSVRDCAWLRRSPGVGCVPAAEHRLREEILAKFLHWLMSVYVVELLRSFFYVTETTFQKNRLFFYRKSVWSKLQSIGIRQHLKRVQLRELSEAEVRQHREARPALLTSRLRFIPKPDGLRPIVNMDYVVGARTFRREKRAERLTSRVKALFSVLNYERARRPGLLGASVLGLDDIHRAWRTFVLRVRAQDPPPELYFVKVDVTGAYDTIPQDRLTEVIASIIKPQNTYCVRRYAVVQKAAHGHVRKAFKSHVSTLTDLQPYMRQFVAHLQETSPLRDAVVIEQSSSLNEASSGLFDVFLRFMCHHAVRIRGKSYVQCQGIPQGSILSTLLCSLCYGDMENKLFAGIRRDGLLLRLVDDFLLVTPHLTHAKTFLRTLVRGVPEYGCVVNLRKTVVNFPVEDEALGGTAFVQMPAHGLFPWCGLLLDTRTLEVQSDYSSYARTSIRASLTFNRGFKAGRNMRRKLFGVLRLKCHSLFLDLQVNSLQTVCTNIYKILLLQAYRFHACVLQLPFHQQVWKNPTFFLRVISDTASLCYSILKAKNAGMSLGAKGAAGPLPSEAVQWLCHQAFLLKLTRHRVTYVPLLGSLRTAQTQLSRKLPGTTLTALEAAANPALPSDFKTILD
T4 sequence (P04415 whole entry): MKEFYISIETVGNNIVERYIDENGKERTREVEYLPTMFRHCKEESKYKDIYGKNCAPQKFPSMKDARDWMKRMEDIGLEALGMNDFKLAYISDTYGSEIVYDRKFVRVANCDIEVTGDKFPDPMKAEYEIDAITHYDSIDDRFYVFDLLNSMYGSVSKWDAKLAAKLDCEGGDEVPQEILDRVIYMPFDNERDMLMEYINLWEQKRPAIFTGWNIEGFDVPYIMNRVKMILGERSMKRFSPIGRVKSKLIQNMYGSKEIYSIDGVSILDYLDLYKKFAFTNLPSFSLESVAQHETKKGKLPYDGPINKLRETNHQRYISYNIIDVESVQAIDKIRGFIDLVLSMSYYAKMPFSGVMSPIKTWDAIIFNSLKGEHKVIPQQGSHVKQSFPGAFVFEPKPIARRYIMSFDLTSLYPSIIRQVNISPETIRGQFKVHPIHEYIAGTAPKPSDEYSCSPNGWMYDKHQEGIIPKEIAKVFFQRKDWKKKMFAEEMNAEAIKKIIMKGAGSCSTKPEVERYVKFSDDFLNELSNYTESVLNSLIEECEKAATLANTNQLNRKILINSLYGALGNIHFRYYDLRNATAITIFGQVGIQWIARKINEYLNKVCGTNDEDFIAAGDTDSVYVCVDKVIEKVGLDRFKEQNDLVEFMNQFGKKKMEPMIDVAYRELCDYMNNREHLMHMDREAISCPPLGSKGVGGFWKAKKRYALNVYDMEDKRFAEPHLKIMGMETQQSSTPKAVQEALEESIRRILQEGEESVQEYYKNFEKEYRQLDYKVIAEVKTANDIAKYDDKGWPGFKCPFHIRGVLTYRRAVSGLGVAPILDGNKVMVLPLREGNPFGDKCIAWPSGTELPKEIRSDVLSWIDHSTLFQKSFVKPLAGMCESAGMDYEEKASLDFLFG
T2 sequence (Q07864 whole entry): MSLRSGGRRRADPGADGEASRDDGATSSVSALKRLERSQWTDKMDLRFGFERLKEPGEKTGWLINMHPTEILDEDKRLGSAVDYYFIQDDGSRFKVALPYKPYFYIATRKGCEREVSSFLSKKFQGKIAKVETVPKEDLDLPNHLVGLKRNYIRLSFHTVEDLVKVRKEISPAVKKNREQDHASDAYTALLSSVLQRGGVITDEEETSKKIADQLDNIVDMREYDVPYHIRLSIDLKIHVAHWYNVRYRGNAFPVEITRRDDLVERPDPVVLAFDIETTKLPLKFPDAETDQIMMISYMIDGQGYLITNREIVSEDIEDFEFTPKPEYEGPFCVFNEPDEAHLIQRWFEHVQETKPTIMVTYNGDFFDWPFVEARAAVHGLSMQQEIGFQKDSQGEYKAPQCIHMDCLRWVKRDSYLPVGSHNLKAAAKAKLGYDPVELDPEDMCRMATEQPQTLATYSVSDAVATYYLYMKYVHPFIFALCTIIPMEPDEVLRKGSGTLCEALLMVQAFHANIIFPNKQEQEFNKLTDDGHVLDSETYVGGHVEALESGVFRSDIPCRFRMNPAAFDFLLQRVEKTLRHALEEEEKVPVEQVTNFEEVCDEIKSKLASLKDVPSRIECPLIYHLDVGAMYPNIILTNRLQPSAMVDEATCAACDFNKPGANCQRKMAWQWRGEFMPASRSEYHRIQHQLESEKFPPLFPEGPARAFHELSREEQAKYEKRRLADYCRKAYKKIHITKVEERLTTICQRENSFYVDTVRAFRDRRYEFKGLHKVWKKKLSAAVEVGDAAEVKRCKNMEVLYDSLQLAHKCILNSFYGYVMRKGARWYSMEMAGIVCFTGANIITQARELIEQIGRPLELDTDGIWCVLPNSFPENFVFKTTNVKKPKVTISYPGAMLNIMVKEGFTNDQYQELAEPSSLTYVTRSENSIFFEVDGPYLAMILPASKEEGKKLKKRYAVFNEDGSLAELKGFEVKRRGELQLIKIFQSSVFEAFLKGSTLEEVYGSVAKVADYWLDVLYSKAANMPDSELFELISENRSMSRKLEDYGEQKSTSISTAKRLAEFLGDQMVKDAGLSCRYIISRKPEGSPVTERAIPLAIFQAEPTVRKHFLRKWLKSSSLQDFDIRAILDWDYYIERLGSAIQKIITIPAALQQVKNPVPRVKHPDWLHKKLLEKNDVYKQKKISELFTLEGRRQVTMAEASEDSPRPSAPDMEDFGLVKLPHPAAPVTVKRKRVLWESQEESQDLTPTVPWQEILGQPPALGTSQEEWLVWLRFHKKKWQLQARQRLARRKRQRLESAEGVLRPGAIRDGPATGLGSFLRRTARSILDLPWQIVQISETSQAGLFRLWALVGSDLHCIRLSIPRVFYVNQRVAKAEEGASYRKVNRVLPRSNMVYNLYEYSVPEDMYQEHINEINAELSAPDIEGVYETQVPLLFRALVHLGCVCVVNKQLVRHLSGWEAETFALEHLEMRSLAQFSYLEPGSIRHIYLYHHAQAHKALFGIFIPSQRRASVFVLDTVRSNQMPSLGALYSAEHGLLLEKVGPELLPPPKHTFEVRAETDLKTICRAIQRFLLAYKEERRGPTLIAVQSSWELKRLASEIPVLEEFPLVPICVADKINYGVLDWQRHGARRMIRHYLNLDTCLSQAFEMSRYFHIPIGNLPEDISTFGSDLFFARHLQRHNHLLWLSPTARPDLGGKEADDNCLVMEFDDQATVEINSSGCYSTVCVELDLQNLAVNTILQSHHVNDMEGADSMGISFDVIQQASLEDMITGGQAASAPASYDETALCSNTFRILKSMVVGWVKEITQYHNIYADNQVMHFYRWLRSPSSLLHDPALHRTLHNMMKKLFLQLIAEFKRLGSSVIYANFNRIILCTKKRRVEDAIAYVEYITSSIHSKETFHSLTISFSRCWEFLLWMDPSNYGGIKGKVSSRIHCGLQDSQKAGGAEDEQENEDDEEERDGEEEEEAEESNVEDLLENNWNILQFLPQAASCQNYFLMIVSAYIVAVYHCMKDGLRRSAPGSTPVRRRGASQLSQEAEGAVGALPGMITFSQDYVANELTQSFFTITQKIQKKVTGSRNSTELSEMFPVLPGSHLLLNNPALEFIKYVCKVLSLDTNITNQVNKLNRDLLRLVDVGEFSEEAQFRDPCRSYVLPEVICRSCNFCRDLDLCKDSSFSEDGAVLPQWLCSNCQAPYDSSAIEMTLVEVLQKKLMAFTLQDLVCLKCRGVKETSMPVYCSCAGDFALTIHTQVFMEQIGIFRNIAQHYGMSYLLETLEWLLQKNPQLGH

C/C=C/c1occ(C(=O)c2c(OC)cc(OC)cc2C(=O)OC)c(=O)c1OC [compound 1, 3-O-methylfunicone]
effect on pol κ activity ([1]; 100 μM): selectively inhibit
IC50 ([1]; poly(dA)/oligo(dT)18 and dTTP, 0.05 units enzyme, read-out: 50% inhibition of pol κ (IC50)): 12.5 µM
effect on pol ɛ activity [2]: hardly influenced
effect on HIV-1 reverse transcriptase activity [3]: did not influence
effect on T4 pol activity [4]: no effect
effect on human telomerase activity [5]: did not influence
